US3997543A (priority 1974, dated 1976)
Several values for one entry are separate records, joined by “and”; a condition that tells them apart may be missing. Equal entries are not always repeated. Where two headings read alike, the source gives them in different places.

Key:
guinea pig ileum = experiment: tissue or blood; type: cell-based; conditions: for EC50: Cavia porcellus, read-out: ED50
[1] = pH 7
Human Eyes [2] = conditions: in vivo
Mice Eyes = conditions: mouse, in vivo
Human Eyes [3] = conditions: in vivo; remark: listed apart in the source
[4] = in vivo

In the case of `CC(=O)OC1CN2CCC1CC2` (racemic) [(±) H Cl, 3-acetoxy-quinuclidine, reference compound], the “EPMR (Equipotent molar ratio)” value (guinea pig ileum) is reported as 20 and the EC50 (guinea pig ileum) is reported as 0.7 µM.

With `CC(=O)OC1CN2CCC1CC2` (single isomer, unassigned; (+)) [(+) 3-acetoxy quinuclidine] the “stability of solutions on storage” value [1] was “no perceptible deterioration”.

With `CC(=O)OC1CN2CCC1CC2` (single isomer, unassigned; (+)) [(+) H Cl, (+) 3-acetoxy quinuclidine] the ACh-like agonist strength (guinea pig ileum) was “strongest agonist”, the “Blockade of agonist effect by atropine” value (guinea pig ileum) was “blocked” and the “EPMR (Equipotent molar ratio)” value (guinea pig ileum) was 25. The “Pupil Diam.” value (Human Eyes [2]) was 4.5 mm and 3.0 mm and 3.5 mm, the “Time after which acute miosis developed” value (Mice Eyes) was 4 min and the Pupil Diameter (Human Eyes [3]) was 3.5 mm.

For `CC(=O)OC1CN2CCC1CC2` (single isomer, unassigned; (-)) [(-) H Cl], the “EPMR (Equipotent molar ratio)” value (guinea pig ileum) was 100, the “Pupil Diameter” value (Human Eyes [2]) was 4.5 mm and 4.0 mm and 3.5 mm and 3.7 mm and 3.0 mm and 3.2 mm and 3.6 mm and the “Reversal of Mydriasis Time” value (Mice Eyes) was > 15 min.

Work on `CC(=O)OCC[N+](C)(C)C` [Acetylcholine, reference compound] yielded an EC50 (guinea pig ileum) of 0.03 µM.

With `CC[C@@H]1C(=O)OC[C@@H]1Cc1cncn1C` [Pilocarpine] the Intraoccular pressure [4] was 31 mmHg and 33 mmHg and 24 mmHg and 25 mmHg and 26 mmHg and 29 mmHg and 28 mmHg.
